{
  "source": "patent US8183388B2",
  "about": "“Androgen receptor modulator and uses thereof” (Eli Lilly and Company, priority 2009, dated 2012)",
  "key": {"[1]": {"molecular_target": "T1, human MR (mineralocorticoid receptor) (Homo sapiens, UniProt P08235)", "T1 construct": "expressed in transfected cells; host or cells: HEK293 (lysate, 293-MR)", "T1 sequence (P08235 1-984)": "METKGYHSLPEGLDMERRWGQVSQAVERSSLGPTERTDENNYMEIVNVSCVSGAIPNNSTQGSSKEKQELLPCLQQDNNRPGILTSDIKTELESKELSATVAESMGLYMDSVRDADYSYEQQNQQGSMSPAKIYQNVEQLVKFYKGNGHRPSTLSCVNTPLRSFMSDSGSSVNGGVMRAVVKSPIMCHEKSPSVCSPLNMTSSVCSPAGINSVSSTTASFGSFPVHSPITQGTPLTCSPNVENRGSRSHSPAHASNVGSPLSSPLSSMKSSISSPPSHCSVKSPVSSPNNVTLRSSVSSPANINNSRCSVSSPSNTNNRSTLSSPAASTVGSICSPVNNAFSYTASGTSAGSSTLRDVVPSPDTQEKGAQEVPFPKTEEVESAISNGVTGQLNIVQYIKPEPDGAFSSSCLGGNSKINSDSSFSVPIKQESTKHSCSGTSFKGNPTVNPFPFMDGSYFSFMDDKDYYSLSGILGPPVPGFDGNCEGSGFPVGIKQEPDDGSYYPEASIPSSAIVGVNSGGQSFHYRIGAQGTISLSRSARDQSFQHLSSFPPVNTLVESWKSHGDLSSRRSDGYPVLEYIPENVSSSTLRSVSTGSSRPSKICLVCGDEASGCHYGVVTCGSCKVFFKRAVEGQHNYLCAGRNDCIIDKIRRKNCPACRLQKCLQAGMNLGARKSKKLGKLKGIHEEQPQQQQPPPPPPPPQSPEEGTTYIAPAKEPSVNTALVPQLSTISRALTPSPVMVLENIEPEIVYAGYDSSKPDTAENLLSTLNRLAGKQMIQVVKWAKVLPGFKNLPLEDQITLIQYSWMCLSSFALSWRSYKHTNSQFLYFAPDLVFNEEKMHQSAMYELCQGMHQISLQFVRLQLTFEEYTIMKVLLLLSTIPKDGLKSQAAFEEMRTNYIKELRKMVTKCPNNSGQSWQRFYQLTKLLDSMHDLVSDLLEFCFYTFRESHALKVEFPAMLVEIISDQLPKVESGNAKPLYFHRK", "assay": "Steroid hormone nuclear receptor binding assay, MR", "conditions": "HEK293 lysate overexpressing human MR, [3H]-aldosterone", "description": "(§1) Cell lysates from human embryonic kidney HEK293 cells overexpressing human MR (mineralocorticoid receptor), GR (glucocorticoid receptor), AR (androgen receptor), or PR (progesterone receptor) are used for receptor-ligand competition binding assays to determine Ki values. Typical procedures are provided below\n(§2) Briefly, steroid receptor competition binding assays are run in a buffer containing 20 mM HEPES buffer (pH=7.6), 0.2 mM EDTA, 75 mM NaCl, 1.5 mM MgCl2, 20% glycerol, 20 mM sodium molybdate, 0.2 mM DTT (dithiothreitol), 20 μg/mL aprotinin and 20 μg/mL leupeptin (assay buffer). Typically, steroid receptor binding assays include radio-labeled ligands, such as 0.25 nM [^3H]-aldosterone for MR binding, 0.3 nM [^3H]-dexamethasone for GR binding, 0.36 nM [^3H]-methyltrienolone for AR binding, and 0.29 nM [^3H]-methyltrienolone for PR binding, and either 20 μg 293-MR lysate, 20 μg 293-GR lysate, 22 μg 293-AR lysate, or 40 μg 293-PR lysate per well. Assays are typically run in 96-well format. Competing test compounds are added at various concentrations ranging from about 0.01 nM to 10 μM. Non-specific binding is determined in the presence of 500 nM aldosterone for MR binding, 500 nM dexamethasone for GR binding, or 500 nM methyltrienolone for AR and PR binding. […] After an incubation of 2 hours, plates are read in a Wallac Microbeta counter. […]"}, "[2]": {"molecular_target": "T2, human PR (progesterone receptor) (Homo sapiens, UniProt P06401)", "T2 construct": "expressed in transfected cells; host or cells: HEK293 (lysate, 293-PR)", "T2 sequence (P06401 1-933)": "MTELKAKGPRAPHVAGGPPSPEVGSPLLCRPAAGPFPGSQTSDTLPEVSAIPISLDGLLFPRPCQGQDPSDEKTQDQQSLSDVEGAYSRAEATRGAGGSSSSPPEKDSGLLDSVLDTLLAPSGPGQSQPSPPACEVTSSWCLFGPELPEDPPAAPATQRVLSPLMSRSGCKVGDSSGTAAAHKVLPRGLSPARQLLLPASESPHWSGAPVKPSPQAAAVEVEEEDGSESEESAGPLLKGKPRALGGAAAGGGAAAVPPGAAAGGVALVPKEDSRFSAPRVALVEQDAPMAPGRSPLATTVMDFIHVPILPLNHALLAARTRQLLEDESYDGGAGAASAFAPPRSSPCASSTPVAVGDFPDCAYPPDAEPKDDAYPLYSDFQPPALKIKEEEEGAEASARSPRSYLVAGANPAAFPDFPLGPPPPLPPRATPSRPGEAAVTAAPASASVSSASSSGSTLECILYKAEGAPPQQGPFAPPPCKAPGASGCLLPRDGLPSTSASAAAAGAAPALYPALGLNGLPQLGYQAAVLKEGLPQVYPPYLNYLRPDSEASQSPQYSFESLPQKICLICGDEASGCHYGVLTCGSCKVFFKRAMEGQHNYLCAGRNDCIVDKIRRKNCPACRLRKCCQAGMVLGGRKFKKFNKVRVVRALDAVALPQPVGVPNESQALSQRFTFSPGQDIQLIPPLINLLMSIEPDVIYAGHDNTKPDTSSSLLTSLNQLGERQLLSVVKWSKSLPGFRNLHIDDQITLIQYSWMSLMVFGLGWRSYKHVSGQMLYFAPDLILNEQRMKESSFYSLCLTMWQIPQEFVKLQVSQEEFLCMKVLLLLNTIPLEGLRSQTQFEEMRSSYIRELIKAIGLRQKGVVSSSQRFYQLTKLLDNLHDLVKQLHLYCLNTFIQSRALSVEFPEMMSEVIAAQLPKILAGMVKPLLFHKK", "assay": "Steroid hormone nuclear receptor binding assay, PR", "conditions": "HEK293 lysate overexpressing human PR, [3H]-methyltrienolone", "description": "as §1, §2"}},
  "note": "pKi: −log10 of the molar value.",
  "data": [
    {"compound": "CC(C)OC(=O)N[C@H]1Cc2c(n(C[C@H]3OCC[C@@H]3O)c3ccc(C#N)cc23)C1", "note": "[compound of Formula (I), [(S)-7-Cyano-4-((2R,3S)-3-hydroxytetrahydrofuran-2-ylmethyl)-1,2,3,4-tetrahydrocyclopenta[b]indol-2-yl]-carbamic acid isopropyl ester]", "values": [
      {"measurement": "pKi", "setting": "[1]", "result": "< 5.40"},
      {"measurement": "pKi", "setting": "[2]", "result": "< 5.40"}
    ]}
  ]
}
